Data as given in patent publication US20250214925A1, “CATIONIC LIPID, LIPOSOME, LIPID NANOPARTICLE, AND USE” (CARCELL BIOPHARMA LTD., priority 2022, published 2025).

Columns and labels:
[1] = LNP size and PDI by dynamic laser light scattering; assay type: physicochemical; conditions: LNP: 50% cationic lipid, 38.5% cholesterol, 10% DSPC, 1.5% DMG-PEG2000; Ffluc mRNA
Procedure, shortened: (§1)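 LNPs of cationic lipid/cholesterol/DSPC/DMG-PEG2000 at 50/38.5/10/1.5 mol% in ethanol, mixed with Ffluc mRNA at 0.2 mg/mL in 10 mM pH 4.0 citrate via T-mixer at 40 mL/min. Dialyzed overnight against 50 mM Tris-buffered saline pH 7.4 and sieved; PDI by dynamic light scattering, encapsulation by Ribogreen.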

[2] = mRNA encapsulation efficiency of LNP by Ribogreen assay; assay type: physicochemical; conditions: LNP: 50% cationic lipid, 38.5% cholesterol, 10% DSPC, 1.5% DMG-PEG2000; Ffluc mRNA
Procedure, shortened: as §1

mice [3] = assay: In vivo delivery of Ffluc mRNA LNP in mice, intravenous administration, luminescence relative to MC3; design: species or system mice (female Balb/C); conditions: fold change in luminescence intensity relative to MC3; 0.06 mg/kg tail vein; 6 h after injection
Procedure, shortened: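 Female Balb/C mice (18-22 g, 6-8 weeks, n=5) received Ffluc mRNA LNP at 0.06 mg/kg by tail vein in 50 mM TBS pH 7.4. Six hours later, intraperitoneal D-luciferin was given and whole-body luminescence imaged, with each lipid reported as fold change relative to MC3 LNP.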

mice [4] = assay: In vivo delivery of Ffluc mRNA LNP in mice, intramuscular administration, luminescence relative to MC3; design: species or system mice (female Balb/C); conditions: fold change in luminescence intensity relative to MC3; 50 μL of 0.1 mg/mL mRNA LNP into right thigh; 6 h after injection
Experimental: The prepared encapsulation solution was applied to mice in the following manner, and its delivery efficiency in mice was tested. Among them, DLin-MC3-DMA (MC3) was a cationic liposome for delivering small nucleic acids that was approved by the FDA for marketing in 2018, which has high nucleic acid drug delivery efficiency and biosafety, and was usually used as the industry gold standard in the screening process of cationic lipids. In the evaluation of mice experiments, the ratio of nucleic acid delivery efficiency normalized to MC3 was greater than 0.1, which was considered to be a cationic lipid with high delivery efficiency.
The LNP solution was diluted with 50 mM TBS, pH 7.4 to a concentration of 0.1 mg/mL mRNA.
2. The mice involved in this study were female Balb/C, weighing 18-22 g, 6-8 weeks old, with 5 mice in each group.
3. The dosing solution was kept at 4° C. prior to injection.
4. 50 μL of LNP solution was injected into the right thigh of the mice.
5. The mice were injected intraperitoneally with 200 μL of 1.5 mg/mL D-luciferin solution 6 h after injection.
6. The in vivo luminescence images of the mice were obtained using the IVIS system (Aniview).
7. The luminescence intensity of each mice was measured using Aniview software.
8. MC3 lipid nanoparticles were used as a positive control. The in vivo efficacy of each cationic lipid tested was recorded as the fold change in luminescence intensity relative to MC3 (ratio normalized to MC3).

| Compound | PDI [1] | Size (nm) [1] [nm] | Encapsulation Rate [2] [%] | In Vivo Efficacy Normalized To Mc3 In Mice (Intravenous Injection) (mice [3]) | In Vivo Efficacy Normalized To Mc3 In Mice (Intramuscular Injection) (mice [4]) |
| --- | --- | --- | --- | --- | --- |
| CCCCCCCCCC/C(=C\C(=O)OCCCCCCCN(CCCO)CCCCCCCOC(=O)/C=C(/CCCCCCCC)CCCCCCCCCC)CCCCCCCC [CPL-101, ((3-hydroxypropyl)azanediyl)bis(heptane-7,1-diyl)(2Z,2′Z)-bis(3-octyltridec-2-enoate)] | 0.0791 | 69.38 | 95 | 2.90 | 1.76 |
| CCCCCCCC/C(=C/C(=O)OCCCCCCCCN(CCCO)CCCCCCCCOC(=O)/C=C(\CCCCC)CCCCCCCC)CCCCC [CPL-113-01, ((3-hydroxypropyl)azanediyl)bis(octane-8,1-diyl) (2E,2′E)-bis(3-pentylundec-2-enoate)] | 0.24 | 97.7 | 96 | 2.52 | 1.65 |
| CCCCCCCC/C(=C/C(=O)OCCCCCCCCCN(CCCO)CCCCCCCCCOC(=O)/C=C(\CCC)CCCCCCCC)CCC [CPL-127, ((3-hydroxypropyl)azanediyl)bis(nonane-9,1-diyl) (2E,2′E)-bis(3-propylundec-2-enoate)] | 0.0486 | 94.43 | 92 | 2.54 | 2.37 |
| CCCCC/C(=C/C(=O)OCCCCCCCCCN(CCCO)CCCCCCCCCOC(=O)/C=C(\CCCC)CCCCC)CCCC [CPL-133-01, ((3-hydroxypropyl)azanediyl)bis(nonane-9,1-diyl) (2E,2′E)-bis(3-butyloct-2-enoate)] | 0.0569 | 80.25 | 97 | 3.54 | 6.61 |
| CCCCCCCCCC/C(=C\C(=O)OCCCCCCCCCN(CCCO)CCCCCCCCCOC(=O)/C=C(\CCCCC)CCCCCCCCCC)CCCCC [CPL-136] | 0.2 | 92.9 | 98 | 2.81 | 1.61 |
| CCCCCC/C(=C/C(=O)OCCCCCCCCCCN(CCCO)CCCCCCCCCCOC(=O)/C=C(\CCC)CCCCCC)CCC [CPL-148, ((3-hydroxypropyl)azanediyl)bis(decane-10,1-diyl) (2E,2′E)-bis(3-propylnon-2-enoate)] | 0.1437 | 90.31 | 93 | 2.15 | 2.56 |
| CCCCCC/C(=C\C(=O)OCCCCCCCCCCN(CCCO)CCCCCCCCCCOC(=O)/C=C(/CCCC)CCCCCC)CCCC [CPL-152, ((3-hydroxypropyl)azanediyl)bis(decane-10,1-diyl) (2Z,2′Z)-bis(3-butylnon-2-enoate)] | 0.05 | 72.18 | 95 | 2.03 | 2.62 |
| CCCCCC/C(=C/C(=O)OCCCCCCCCCCCN(CCCO)CCCCCCCCCCCOC(=O)/C=C(\CCCC)CCCCCC)CCCC [CPL-174-01, ((3-hydroxypropyl)azanediyl)bis(undecane-11,1-diyl) (2E,2′E)-bis(3-butylnon-2-enoate)] | 0.18 | 112 | 97 | 2.32 | 1.20 |
| CCCCCCCCCC/C(=C/C(=O)OCCCCCCCCCCCN(CCCO)CCCCCCCCCCCOC(=O)/C=C(\CCCCC)CCCCCCCCCC)CCCCC [CPL-180-01, ((3-hydroxypropyl)azanediyl)bis(undecane-11,1-diyl) (2E,2′E)-bis(3-pentyltridec-2-enoate)] | 0.1334 | 66.8 | 86 | 9.31 | 0.72 |
| CCCCCC/C(=C/C(=O)OCCCCCCCCN(CCCO)CCCCCCCCOC(=O)/C=C(\CCCC)CCCCCC)CCCC [CPL-456-01, ((3-hydroxypropyl)azanediyl)bis(octane-8,1-diyl) (2E,2′E)-bis(3-butylnon-2-enoate)] | 0.1225 | 70.36 | 85 | 7.36 | 5.51 |
| CCCCCC/C(=C/C(=O)OCCCCCCCCN(CCCCO)CCCCCCCCOC(=O)/C=C(\CCCC)CCCCCC)CCCC [CPL-457-01, ((4-hydroxybutyl)azanediyl)bis(octane-8,1-diyl) (2E,2′E)-bis(3-butylnon-2-enoate)] | 0.078 | 73 | 90 | 5.49 | 12.13 |
